Drawing on ChEMBL document CHEMBL1153604, “Inhibition of Pseudomonas aeruginosa quorum sensing by AI-2 analogs” (Bioorg Med Chem Lett, 2009), this text covers EC50, Activity and inhibition for seven molecules.

Assay [1] concerns the target Autoinducer 2-binding periplasmic protein LuxP (Vibrio harveyi, UniProt P54300). As to the kind of experiment: Agonist activity at Vibrio harveyi BB170 LuxP assessed as inhibition of autoinducer-2-induced quorum sensing after 5 hrs by luminescence assay. The format is functional.
The target of assay [2] is Autoinducer 2-binding periplasmic protein LuxP (Vibrio harveyi) (UniProt P54300). As to the kind of experiment: Agonist activity at Vibrio harveyi MM30 LuxP assessed as inhibition of autoinducer-2-induced quorum sensing. The format is functional.
In assay [3] the test system is Pseudomonas aeruginosa. As to the kind of experiment: Inhibition of Pseudomonas aeruginosa PAO-JP2-luxCDABE quorm sensing at 200 uM measured every 20 min by luminescence assay in presence of 3-oxo-C12-HSL.
Assay [4] relates to Pseudomonas aeruginosa PAO1. Nature of the assay: Inhibition of wild type Pseudomonas aeruginosa PAO1-luxCDABE quorm sensing measured after 20 mins by luminescence assay.
The subject of assay [5] is Pseudomonas aeruginosa PAO1. As to the kind of experiment: Inhibition of wild type Pseudomonas aeruginosa PAO1 assessed as reduction in pyocyanin production at 100 uM after 19 hrs […]. Also on record: scale not given: the % may be the effect or the level left.
Assay [6] concerns Pseudomonas aeruginosa. As to the kind of experiment: Inhibition of Pseudomonas aeruginosa PAO-JP2-luxCDABE quorm sensing measured every 20 mins in presence of 3-oxo-C12-HSL.
In assay [7] the test system is Pseudomonas aeruginosa. As to the kind of experiment: Inhibition of wild type Pseudomonas aeruginosa PAO1-luxCDABE growth at >200 uM by luminescence assay. The format is functional, organism-based.
Assay [8] concerns Pseudomonas aeruginosa. As to the kind of experiment: Inhibition of wild type Pseudomonas aeruginosa PAO1 growth at 100 uM. The format is functional, organism-based.

The term EC50 denotes the concentration needed to bring the measured effect to its halfway point. Broadly, the inhibition is the change of the read-out against control, counted positive when it falls.

Active and inactive are the calls of the source. No cut-off for these calls is given here.

Sequence of Autoinducer 2-binding periplasmic protein LuxP (Vibrio harveyi) (P54300 whole entry): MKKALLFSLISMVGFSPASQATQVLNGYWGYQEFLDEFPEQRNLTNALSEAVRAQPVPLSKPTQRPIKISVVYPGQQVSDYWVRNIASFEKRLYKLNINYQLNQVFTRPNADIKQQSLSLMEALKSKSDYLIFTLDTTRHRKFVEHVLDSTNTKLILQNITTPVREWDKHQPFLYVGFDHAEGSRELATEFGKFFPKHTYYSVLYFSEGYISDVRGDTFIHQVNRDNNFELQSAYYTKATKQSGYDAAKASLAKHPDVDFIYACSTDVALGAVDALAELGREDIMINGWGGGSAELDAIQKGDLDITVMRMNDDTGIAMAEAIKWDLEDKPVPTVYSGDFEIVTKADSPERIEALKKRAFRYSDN
Sequence of Autoinducer 2-binding periplasmic protein LuxP (P54300 whole entry): as above

For `CCCCCC(=O)C(=O)[C@@H](O)CO`, the EC50 in assay [1] is 1350 nM. In addition, in assay [2], the result was inactive. Further, the inhibition (in the assay with Pseudomonas aeruginosa [3]; in assay [4]) was 40% throughout. Also, the Activity in assay [5] was 53%; in the assay with Pseudomonas aeruginosa [6], “Dose-dependent effect”. Further, the inhibition result with Pseudomonas aeruginosa [7] is “inactive”.
As for `CCCCCCCC(=O)C(=O)[C@@H](O)CO`, the half-maximal effective concentration (EC50) in assay [1] was determined as 1810 nM. For the same molecule, the outcome in assay [2] was inactive. In addition, the inhibition entry in the assay on Pseudomonas aeruginosa [8] is “inactive”.
As to `CC(=O)C(=O)[C@@H](O)CO`, the EC50 in assay [1] came out at 150 nM. Further, in assay [2], the outcome was inactive. Moreover, in the assay with Pseudomonas aeruginosa [8], the inhibition result was “inactive”.
`CCCCC(=O)C(=O)[C@@H](O)CO`: the EC50 in assay [1] worked out at 1010 nM. Moreover, in assay [2], the outcome was inactive. For the same molecule, the inhibition (in the assay with Pseudomonas aeruginosa [3]; in assay [4]) was 40% each time. Also, the Activity was 59% in assay [5] and “Dose-dependent effect” with Pseudomonas aeruginosa [6]. Also, in the assay on Pseudomonas aeruginosa [7], the inhibition result was “inactive”.
`CCCC(=O)C(=O)[C@@H](O)CO`: in assay [1], the EC50 came to 750 nM. Besides, the result in assay [2] was inactive. In addition, the inhibition result in the assay on Pseudomonas aeruginosa [8] was “inactive”.
As for `CCC(=O)C(=O)[C@@H](O)CO`, the EC50 in assay [1] stood at 580 nM. Besides, the outcome in assay [2] was Active. Besides, in the assay on Pseudomonas aeruginosa [8], the inhibition entry is “inactive”.
The matching figures for `CCCCCCC(=O)C(=O)[C@@H](O)CO`: 1520 nM, “inactive” and “inactive”.
